Data published in patent publication US11168057B2, “Polymorphs and co-crystals of roxadustat” (DR. REDDY'S LABORATORIES LIMITED, priority 2017, dated 2021).

Test: Storage stability in three ICH conditions for three months (water content, purity, PXRD)
Format: physicochemical
Details: for storage stability: all three ICH conditions for three months
Text: The data presented below substantiate that the Form RLP has a high storage stability. Pack-1 (Normal LDPE Bag with 1 g Silica Gel, Packed in a HDPE Container):
Pack-2 (Black Colored LDPE Bag with 1 g Silica Gel, Packed in a HDPE Container):
The data presented below substantiate that the Form RNM has a high storage stability.
Pack-1 (LDPE Bag with 1 g Molecular Sieve, Packed in a HDPE Container):
Pack-2 (LDPE Bag with 1 g Silica Gel, Packed in a HDPE Container): […]

[1] = Pack-1 (Normal LDPE Bag with 1 g Silica Gel, HDPE Container), 2-8° C., 1st Month
[2] = Pack-1 (Normal LDPE Bag with 1 g Silica Gel, HDPE Container), 2-8° C., 3rd Month
[3] = Pack-1 (Normal LDPE Bag with 1 g Silica Gel, HDPE Container), 2-8° C., Initial
[4] = Pack-1 (Normal LDPE Bag with 1 g Silica Gel, HDPE Container), 25 ± 2° C., 60 ± 5% RH, 1st Month
[5] = Pack-1 (Normal LDPE Bag with 1 g Silica Gel, HDPE Container), 25 ± 2° C., 60 ± 5% RH, 3rd Month
[6] = Pack-1 (Normal LDPE Bag with 1 g Silica Gel, HDPE Container), 25 ± 2° C., 60 ± 5% RH, Initial
[7] = Pack-1 (Normal LDPE Bag with 1 g Silica Gel, HDPE Container), 40 ± 2° C., 75 ± 5% RH, 1st Month
[8] = Pack-1 (Normal LDPE Bag with 1 g Silica Gel, HDPE Container), 40 ± 2° C., 75 ± 5% RH, 3rd Month
[9] = Pack-1 (Normal LDPE Bag with 1 g Silica Gel, HDPE Container), 40 ± 2° C., 75 ± 5% RH, Initial
[10] = Pack-2 (Black Colored LDPE Bag with 1 g Silica Gel, HDPE Container), 2-8° C., 1st Month
[11] = Pack-2 (Black Colored LDPE Bag with 1 g Silica Gel, HDPE Container), 2-8° C., 3rd Month
[12] = Pack-2 (Black Colored LDPE Bag with 1 g Silica Gel, HDPE Container), 2-8° C., Initial
[13] = Pack-2 (Black Colored LDPE Bag with 1 g Silica Gel, HDPE Container), 25 ± 2° C., 60 ± 5% RH, 1st Month
[14] = Pack-2 (Black Colored LDPE Bag with 1 g Silica Gel, HDPE Container), 25 ± 2° C., 60 ± 5% RH, 3rd Month
[15] = Pack-2 (Black Colored LDPE Bag with 1 g Silica Gel, HDPE Container), 25 ± 2° C., 60 ± 5% RH, Initial
[16] = Pack-2 (Black Colored LDPE Bag with 1 g Silica Gel, HDPE Container), 40 ± 2° C., 75 ± 5% RH, 1st Month
[17] = Pack-2 (Black Colored LDPE Bag with 1 g Silica Gel, HDPE Container), 40 ± 2° C., 75 ± 5% RH, 3rd Month
[18] = Pack-2 (Black Colored LDPE Bag with 1 g Silica Gel, HDPE Container), 40 ± 2° C., 75 ± 5% RH, Initial
[19] = Pack-1 (LDPE Bag with 1 g Molecular Sieve, HDPE Container), 2-8° C., 1st Month
[20] = Pack-1 (LDPE Bag with 1 g Molecular Sieve, HDPE Container), 2-8° C., 3rd Month
[21] = Pack-1 (LDPE Bag with 1 g Molecular Sieve, HDPE Container), 2-8° C., Initial
[22] = Pack-1 (LDPE Bag with 1 g Molecular Sieve, HDPE Container), 25 ± 2° C., 60 ± 5% RH, 1st Month
[23] = Pack-1 (LDPE Bag with 1 g Molecular Sieve, HDPE Container), 25 ± 2° C., 60 ± 5% RH, 3rd Month
[24] = Pack-1 (LDPE Bag with 1 g Molecular Sieve, HDPE Container), 25 ± 2° C., 60 ± 5% RH, Initial
[25] = Pack-1 (LDPE Bag with 1 g Molecular Sieve, HDPE Container), 40 ± 2° C., 75 ± 5% RH, 1st Month
[26] = Pack-1 (LDPE Bag with 1 g Molecular Sieve, HDPE Container), 40 ± 2° C., 75 ± 5% RH, 3rd Month
[27] = Pack-1 (LDPE Bag with 1 g Molecular Sieve, HDPE Container), 40 ± 2° C., 75 ± 5% RH, Initial
[28] = Pack-2 (LDPE Bag with 1 g Silica Gel, HDPE Container), 2-8° C., 1st Month
[29] = Pack-2 (LDPE Bag with 1 g Silica Gel, HDPE Container), 2-8° C., 3rd Month
[30] = Pack-2 (LDPE Bag with 1 g Silica Gel, HDPE Container), 2-8° C., Initial
[31] = Pack-2 (LDPE Bag with 1 g Silica Gel, HDPE Container), 25 ± 2° C., 60 ± 5% RH, 1st Month
[32] = Pack-2 (LDPE Bag with 1 g Silica Gel, HDPE Container), 25 ± 2° C., 60 ± 5% RH, 3rd Month
[33] = Pack-2 (LDPE Bag with 1 g Silica Gel, HDPE Container), 25 ± 2° C., 60 ± 5% RH, Initial
[34] = Pack-2 (LDPE Bag with 1 g Silica Gel, HDPE Container), 40 ± 2° C., 75 ± 5% RH, 1st Month
[35] = Pack-2 (LDPE Bag with 1 g Silica Gel, HDPE Container), 40 ± 2° C., 75 ± 5% RH, 3rd Month
[36] = Pack-2 (LDPE Bag with 1 g Silica Gel, HDPE Container), 40 ± 2° C., 75 ± 5% RH, Initial

Cc1nc(C(=O)NCC(=O)O)c(O)c2ccc(Oc3ccccc3)cc12.O=C(O)[C@@H]1CCCN1 [Form RLP]
0.14 % w/w: Water content [2] | Water content [4] | Water content [10] | Water content [16]
0.11 % w/w: Water content [1] | Water content [13] | Water content [17]
No change: PXRD [1] | PXRD [2] | PXRD [4] | PXRD [5] | PXRD [7] | PXRD [8] | PXRD [10] | PXRD [11] | PXRD [13] | PXRD [14] | PXRD [16] | PXRD [17]
0.09 % w/w: Water content [3] | Water content [6] | Water content [9] | Water content [12] | Water content [15] | Water content [18]
99.83%: Purity [8] | Purity [16]
99.86%: Purity [5]
0.13 % w/w: Water content [14]
0.16 % w/w: Water content [7] | Water content [11]
99.85%: Purity [2] | Purity [11] | Purity [17]
0.21 % w/w: Water content [8]
0.12 % w/w: Water content [5]
stable: storage stability
Form RLP: PXRD [3] | PXRD [6] | PXRD [9] | PXRD [12] | PXRD [15] | PXRD [18]
99.84%: Purity [1] | Purity [3] | Purity [4] | Purity [6] | Purity [7] | Purity [9] | Purity [12] | Purity [13] | Purity [15] | Purity [18]
99.82%: Purity [10] | Purity [14]

Cc1nc(C(=O)NCC(=O)O)c(O)c2ccc(Oc3ccccc3)cc12.NC(=O)c1cccnc1 [Form RNM]
0.10 % w/w: Water content [25] | Water content [28]
Form RNM: PXRD [21] | PXRD [24] | PXRD [27] | PXRD [30] | PXRD [33] | PXRD [36]
99.61%: Purity [34]
99.62%: Purity [26] | Purity [28] | Purity [35]
0.08 % w/w: Water content [19] | Water content [20] | Water content [23] | Water content [29]
No change: PXRD [19] | PXRD [20] | PXRD [22] | PXRD [23] | PXRD [25] | PXRD [26] | PXRD [28] | PXRD [29] | PXRD [31] | PXRD [32] | PXRD [34] | PXRD [35]
99.65%: Purity [25] | Purity [29] | Purity [31]
99.57%: Purity [21] | Purity [24] | Purity [27] | Purity [30] | Purity [33] | Purity [36]
stable: storage stability
0.07 % w/w: Water content [22] | Water content [26] | Water content [31] | Water content [35]
99.66%: Purity [19] | Purity [20]
0.12 % w/w: Water content [21] | Water content [24] | Water content [27] | Water content [30] | Water content [33] | Water content [34] | Water content [36]
0.11 % w/w: Water content [32]
99.64%: Purity [23] | Purity [32]
99.63%: Purity [22]
